# According to US8153431B2, “Compositions and methods for making mutations in cell lines and animals” (ABT Holding Company, priority 2001, dated 2012):
# How the values were obtained:
# Jurkat cells = assay: Cell survival after ENU treatment (limiting dilution); assay type: cell-based, human; conditions: 2 hours, with 10 uM O-6-BG
# Source text: (§1) The ability to identify all genetic mutations that can create a phenotype requires that large numbers of mutations be created in as few cells as possible, and the high efficiency of ENU chemical mutagenesis is suited to this task. We set out to determine the ENU treatment needed to create 50-100 cell libraries in which all genes are mutated at least once (defined as a 1× knockout library) in Jurkat cells. To characterize the mutagenesis we measured both cell survival and the mutation rate in characterizing the optimal ENU treatment (Table I). Survival was determined by limiting dilution, and the mutation rate was estimated in the population of surviving clones based on the frequency of knocking out the single copy HPRT gene (assayed by the survival of such HPRT^− cells upon culture in the presence of 6-thioguanine). As shown in the table below, at an ENU dose of 0.2 mg/ml the mutation rate is 0.02 HPRT^− genes/cell and the 1× library size is therefore ˜50 cells. Creation of libraries of these densely mutagenized cells provides a genetically sensitized background in which small increments of further mutagenesis can create phenotypes by knocking out the sole remaining wild type alleles of ENU-mutated genes.
# • Jurkat cells were treated with 10 uM O-6-BG (Sigma) at 5×10^5 cells/ml for 16 hours at 37° C. in a humidified incubator with 5% CO2. The pretreated cells were then incubated with desired concentration of ENU (Sigma) in the presence of O-6-BG for 2 hours at 37° C. with constant shaking. At the end of incubation cells were washed with 10-volume 1×PBS three times and resuspended in complete media with 10 uM O-6-BG. 24 hours later O-6-BG was washed off, cells were resuspended in complete media and seeded onto 96-well plate at 20 cells per well or 400-2000 cells per well. Cells were then cultured for 10 days. Viability is determined by the lower density seeding based on number of wells containing growing colonies. To determine mutation frequency, cells seeded at the higher density were used to select for Hprt-loss of function mutants in the presence of 40 uM 6-TG (Sigma). Number of wells containing growing colonies in the presence of 6-TG was scored 7-10 days later. Mutation frequency is calculated as # of 6-TG resistant colony divided by # of viable cells seeded.
# single copy HPRT gene = assay: Mutation rate by knockout of single copy HPRT gene (6-thioguanine selection) in Jurkat cells; assay type: cell-based, human
# Source text: as §1, with “As shown in the table below, at an ENU dose of 0.2 mg/ml the mutation rate is 0.02 HPRT^− genes/cell and the 1× library size is therefore ˜50 cells. Creation of libraries of these densely mutagenized cells provides a genetically sensitized background in which small increments of further mutagenesis can create phenotypes by knocking out the sole remaining wild type alleles of ENU-mutated genes.” left out
# • Jurkat cells were treated with 10 uM O-6-BG (Sigma) at 5×10^5 cells/ml for 16 hours at 37° C. in a humidified incubator with 5% CO2. […] Viability is determined by the lower density seeding based on number of wells containing growing colonies. […] Number of wells containing growing colonies in the presence of 6-TG was scored 7-10 days later. Mutation frequency is calculated as # of 6-TG resistant colony divided by # of viable cells seeded.
structure (smiles),measurement,setting,value
"CCN(N=O)C(N)=O [ENU, N-ethyl-N-nitrosourea]",% survival,Jurkat cells; ENU 0.1 mg/ml,1.83%
same,% survival,Jurkat cells; ENU 0.125 mg/ml,0.93%
same,% survival,Jurkat cells; ENU 0.15 mg/ml,1.08%
same,% survival,Jurkat cells; ENU 0.175 mg/ml,0.88%
same,% survival,Jurkat cells; ENU 0.2 mg/ml,0.29%
same,% survival,Jurkat cells; ENU 0.25 mg/ml,0.07%
same,mutation rate,"single copy HPRT gene; ENU dose of 0.2 mg/ml, Jurkat",0.02 HPRT^− genes/cell
same,genes in each cell with knockout in one copy,single copy HPRT gene; Jurkat clones after 0.2 mg/ml ENU mutagenesis,1-3%
